Measurements published in paper PMC7559897, “Designed Antimicrobial Peptides Against Trauma-Related Cutaneous Invasive Fungal Wound Infections” (Journal of Fungi, 2020).
Values after ≈ are worked out from the molar mass of the structure shown. Bridge positions count the residues as written; N and C are the ends. Square brackets hold non-standard residues; d marks the D form. Peptide text beside a SMILES is read from it. Orn = NCCC[C@H](N)C(=O)O

Key:
[1] = test system: Absidia corymbifera NRRL 6251; assay type: cell-based; conditions: NRRL 6251, 24 h
Protocol: (§1) Assays were performed by Trideum Biosciences (Frederick, MD, USA). Isolates were thawed from −80 °C storage and sub-cultured on trypticase soy agar plates at 37 °C prior to experimentation. A single colony was aseptically picked from the agar plate and released in 30 mL trypticase soy broth and incubated overnight at 37 °C incubator. Following which the bacterial culture was diluted to approximately 10^6 colony forming units (CFU)/mL using 2X cation adjusted Mueller–Hinton broth and added to the dAMP solutions (0, 2, 4, 8, 16, 32, 64, and 128 μg/mL) which had been formulated in water at 256 μg/mL and then serially diluted in media on 96-well pates. For fungal evaluation, potato dextrose broth and potato dextrose agar plates were used. The treated cultures were then incubated for 24 h at 37 °C and pathogen growth was measured by absorbance at 600 nm. Four replicas were included for each dAMP concentration. Each MIC was assigned to the lowest test agent concentration resulting in at least three out of four wells showing no growth based on an optical density (OD) reading of <0.1.

[2] = test system: Aspergillus flavus MYA-1004; assay type: cell-based; conditions: 24 h
Protocol: as §1

[3] = test system: Aspergillus flavus MYA-3651; assay type: cell-based; conditions: 24 h
Protocol: as §1

[4] = test system: Aspergillus fumigatus 9648; assay type: cell-based; conditions: 9648, 24 h
Protocol: as §1

[5] = test system: Aspergillus fumigatus 9651; assay type: cell-based; conditions: 9651, 24 h
Protocol: as §1

[6] = test system: Candida albicans Y-326; assay type: cell-based; conditions: Y-326, 24 h
Protocol: as §1

[7] = test system: Candida albicans Y-6359; assay type: cell-based; conditions: Y-6359, 24 h
Protocol: as §1

[8] = test system: Candida krusei Y-27803; assay type: cell-based; conditions: Y-27803, 24 h
Protocol: as §1

[9] = test system: Candida krusei Y-27825; assay type: cell-based; conditions: Y-27825, 24 h
Protocol: as §1

[10] = test system: Candida parapsilosis Y-1761; assay type: cell-based; conditions: Y-1761, 24 h
Protocol: as §1

[11] = test system: Candida parapsilosis Y-1763; assay type: cell-based; conditions: Y-1763, 24 h
Protocol: as §1

[12] = test system: E. cloacae 6053; assay type: cell-based; conditions: 6053, 24 h
Protocol: as §1

[13] = test system: E. cloacae 6054; assay type: cell-based; conditions: 6054, 24 h
Protocol: as §1

[14] = test system: Fusarium solani NRRL 28548; assay type: cell-based; conditions: NRRL 28548, 24 h
Protocol: as §1

[15] = test system: Mucor circinelloides NRRL 3631; assay type: cell-based; conditions: NRRL 3631, 24 h
Protocol: as §1

[16] = test system: S. epidermis ATCC 51625; assay type: cell-based; conditions: ATCC 51625, 24 h
Protocol: as §1

[17] = test system: A. baumannii 6043; assay type: cell-based, Acinetobacter baumannii; conditions: 6043, 24 h
Protocol: as §1

[18] = test system: A. baumannii 6838; assay type: cell-based, Acinetobacter baumannii; conditions: 6838, 24 h
Protocol: as §1

[19] = test system: A. baumannii ATCC 17978; assay type: cell-based, Acinetobacter baumannii; conditions: ATCC 17978, 24 h
Protocol: as §1

[20] = test system: K. pneumonia 6069; assay type: cell-based, Klebsiella pneumoniae; conditions: 24 h
Protocol: as §1

[21] = test system: K. pneumonia ATCC 10031; assay type: cell-based, Klebsiella pneumoniae; conditions: ATCC 10031, 24 h
Protocol: as §1

[22] = test system: P. aeruginosa 6186; assay type: cell-based, Pseudomonas aeruginosa; conditions: 6186, 24 h
Protocol: as §1

[23] = test system: P. aeruginosa ATCC 19660; assay type: cell-based, Pseudomonas aeruginosa; conditions: ATCC 19660, 24 h
Protocol: as §1

[24] = test system: P. aeruginosa ATCC 27853; assay type: cell-based, Pseudomonas aeruginosa; conditions: ATCC 27853, 24 h
Protocol: as §1

[25] = test system: MRSA 6313; assay type: cell-based, Staphylococcus aureus; conditions: 6313, 24 h
Protocol: as §1

[26] = test system: MRSA 6381; assay type: cell-based, Staphylococcus aureus; conditions: 6381, 24 h
Protocol: as §1

[27] = test system: MRSA ATCC 33592; assay type: cell-based, Staphylococcus aureus; conditions: ATCC 33592, 24 h
Protocol: as §1

[28] = test system: S. aureus 6061; assay type: cell-based, Staphylococcus aureus; conditions: 6061, 24 h
Protocol: as §1

[29] = test system: S. aureus B-767; assay type: cell-based, Staphylococcus aureus; conditions: B-767, 24 h
Protocol: as §1

[30] = test system: P. aeruginosa 19660 (Xen5 luciferase); experiment: Bioluminescent time-kill assay; assay type: cell-based, Pseudomonas aeruginosa; conditions: 8 μg/mL, 60 min, bioluminescence, triplicates from two independent experiments
Description: (§2) Fungal and bacterial strains were obtained from American Type Culture Collection (ATCC, Manassas, VA, USA) or the clinical isolate collection at Trideum Biosciences (Frederick, MD, USA) and are presented in Table 1 and Table 2, respectively. Bioluminescence strains of P. aeruginosa 19660, transfected with the Xen5 luciferase gene, and S. aureus ATCC R 49525TM (Wright), transfected with the Xen36 luciferase gene, were obtained from Perkin Elmer (Waltham, MA, USA).
(§3) Real-time killing of bacterial cells, P. aeruginosa or S. aureus, and mammalian cytotoxicity to assess dAMP off-target toxicity was evaluated using bioluminescent cells. The L929 fibroblast cells (ATCC, Manassas, VA, USA) were made bioluminescent by transfection with a luciferase gene. Cells (1 × 10^4 cells, 100 μL) were plated in 96-well black-walled plates and the candidate dAMPs were 2-fold serially diluted from specified concentrations in growth medium supplemented with 150 μg/mL D-luciferin. Each concentration was performed in triplicate, with the final volume being 200 μL. Imaging was performed at select times after the addition of the dAMP, and compared to concurrently run vehicle-control, using an IVIS Lumina imaging system (Caliper Life Sciences, Inc., Hopkinton, MA, USA). For imaging, the 96-well plate was positioned on the stage (12.5-cm field of view), with an open emission filter, binning of 4, and f-stop 1 and a 1-min exposure time. Monitoring bioluminescence allows assessment of the kinetics of cellular viability as there is a tight correlation between the bioluminescent signal and cell viability. Data analysis was performed using the Living Image software program (version 4.3, Caliper Life Sciences, Inc., Hopkinton, MA, USA).
(§4) Figure 3 RP553, RP556, RP557 rapidly destroy P. aeruginosa and S. aureus. The bioluminescence of viable P. aeruginosa 19,660 and S. aureus 49,525 cells was quantitated in real time with an IVIS Lumina bioimaging system. Data represent the mean ± SE of triplicate replicates from two independent experiments. For some points, the error bars are shorter than the height of the symbols.

[31] = test system: S. aureus 49525 (Xen36 luciferase); assay type: cell-based, Staphylococcus aureus; conditions: 8 μg/mL, 60 min incubation, bioluminescence, triplicates from two independent experiments
Description: as §2, §3, §4

[32] = test system: vulvovaginal candidiasis infection; conditions: rodent vulvovaginal candidiasis, after three days of daily treatment; cited from earlier work
Description: The dAMPs RP504, RP554 and RP557 were thus tested for their ability to treat a rodent vulvovaginal candidiasis infection. […] A daily dose with a 2% concentration lowered the CFU/sample by more than 4 logs compared to the con ...

For `CC[C@H](C)[C@H](NC(=O)CNC(=O)CNC(=O)[C@@H]1CSSC[C@H](NC(=O)CNC(=O)CNC(=O)[C@H](CC(C)C)NC(=O)[C@H](CCCN)NC(=O)[C@H](C)NC(=O)[C@H](CCCN)NC(=O)[C@@H](NC(=O)[C@H](CCCN)NC(=O)[C@@H](N)Cc2ccccc2)[C@@H](C)CC)C(=O)N[C@@H](CC(C)C)C(=O)NCC(=O)N[C@@H](CCCN)C(=O)N[C@@H](Cc2ccccc2)C(=O)N1)C(=O)N[C@@H](CCCN)C(=O)N[C@@H](C)C(=O)N[C@@H](CCCN)C(=O)N[C@@H](CC(C)C)C(=O)N[C@@H](C)C(=O)N[C@@H](Cc1ccccc1)C(N)=O` [RP504] (H-F[Orn]I[Orn]A[Orn]LGGCLG[Orn]FCGGI[Orn]A[Orn]LAF-NH2; disulfide 10-15), the “MIC against Absidia corymbifera NRRL 6251” value [1] was 8 µg/mL (≈ 3.32 µM), the “MIC against Aspergillus flavus MYA-1004” value [2] was greater than 128 µg/mL and the “MIC against Aspergillus flavus MYA-3651” value [3] was greater than 128 µg/mL. The “MIC against Aspergillus fumigatus 9648” value [4] was greater than 128 µg/mL, the “MIC against Aspergillus fumigatus 9651” value [5] was greater than 128 µg/mL and the “MIC against Candida albicans Y-326” value [6] was 8 µg/mL (≈ 3.32 µM). For the same compound, the “MIC against Candida albicans Y-6359” value [7] was 4 µg/mL (≈ 1.66 µM), the “MIC against Candida krusei Y-27803” value [8] was 8 µg/mL (≈ 3.32 µM) and the “MIC against Candida krusei Y-27825” value [9] was 8 µg/mL (≈ 3.32 µM). For the same compound, the “MIC against Candida parapsilosis Y-1761” value [10] was 8 µg/mL (≈ 3.32 µM), the “MIC against Candida parapsilosis Y-1763” value [11] was 2 µg/mL (≈ 0.829 µM) and the “MIC against E. cloacae 6053” value [12] was 32 µg/mL (≈ 13.3 µM). For the same compound, the “MIC against E. cloacae 6054” value [13] was 64 µg/mL (≈ 26.5 µM), the “MIC against Fusarium solani NRRL 28548” value [14] was 2 µg/mL (≈ 0.829 µM) and the “MIC against Mucor circinelloides NRRL 3631” value [15] was greater than 128 µg/mL. For the same compound, the “MIC against S. epidermis ATCC 51625” value [16] was 16 µg/mL (≈ 6.63 µM), the “MIC against A. baumannii 6043” value [17] was 32 µg/mL (≈ 13.3 µM) and the “MIC against A. baumannii 6838” value [18] was 64 µg/mL (≈ 26.5 µM). For the same compound, the “MIC against A. baumannii ATCC 17978” value [19] was 32 µg/mL (≈ 13.3 µM), the “MIC against K. pneumonia 6069” value [20] was 32 µg/mL (≈ 13.3 µM) and the “MIC against K. pneumonia ATCC 10031” value [21] was 32 µg/mL (≈ 13.3 µM). For the same compound, the “MIC against P. aeruginosa 6186” value [22] was 16 µg/mL (≈ 6.63 µM), the “MIC against P. aeruginosa ATCC 19660” value [23] was 16 µg/mL (≈ 6.63 µM) and the “MIC against P. aeruginosa ATCC 27853” value [24] was 16 µg/mL (≈ 6.63 µM). For the same compound, the “MIC against MRSA 6313” value [25] was 64 µg/mL (≈ 26.5 µM), the “MIC against MRSA 6381” value [26] was 64 µg/mL (≈ 26.5 µM) and the “MIC against MRSA ATCC 33592” value [27] was 32 µg/mL (≈ 13.3 µM). The “MIC against S. aureus 6061” value [28] was 64 µg/mL (≈ 26.5 µM), the “MIC against S. aureus B-767” value [29] was 32 µg/mL (≈ 13.3 µM) and the P. aeruginosa destroyed [30] was 25%. For the same compound, the S. aureus killing [31] was 13% and the “reduction of CFU/tissue sample” value [32] was no less than 2.5 logs.
